Measured values published in the OligoGym collection.
Values joined by “and” are separate entries in the source; they are usually repeats but may differ in a detail not shown here. Equal values may be shown once. These antisense oligonucleotides have a phosphorothioate backbone; sugars and methylation of C are not fully specified.

Each sequence was assayed against MAP2K1. Details: ASO.
Further: test concentration or dose not given here.

Sequence | remaining target (mRNA or protein) (fraction of control)
CAAAATCCACTTCCTCAG | 0.28
CTACCCACATTCACCAAA | 0.72
AAGAGTAGAATCTTGGCA | 0.9
CTCTGTGCATGATCTTGT | 0.51
TCTCGCTTCCTCCCTCGT | 0.74
CATGAACCATGAGTTGCT | 0.24
ATTAAGCATTTATTCACA | ≥ 1
CATCTGGAGGAGGGATGG | 0.71
GTAATCCAACAACTCAAA | 0.79
CACCCAAACATCAGCTCC | 0.41
AGGCCGATGGTGGAGCAG | 0.14
AGTCGATGAGCTGCCCGC | 0.24
CCCAGCTCACTGATCTTC | 0.89
CTAGGATGTTGGAGGGCT | 0.27
TCTGCTTCTGGGTAAGAA | ≥ 1
TACAACAGCATTGGTACT | 0.23
AGCAGCATGGGTTGGTGT | 0.41
AGGAGGCCCAAAAGCGAC | 0.65
ACTAAGTATCCCACACAG | 0.16
TGAAGCCCCAGCTATCAT | 0.41

Sequence | remaining target (mRNA or protein) (fraction of control)
GTACGGAGAGTTGCACTC | 0.25
TGGAGTCTTTCTGGCGAC | 0.44
GAGTTCTACATGAAAAGC | 0.66
TTCCAGCTTTCTTCAGGA | 0.58
AACCAGAAGTCTACAGAT | 0.69
GGCCTTTTATTACAGCAA | 0.5
GCTTGTGGGAGACCTTGA | 0.65
TAACGCGCTTCCAACTCC | 0.3
CTGACTGCACAGAGTAAT | 0.2
TGCAGATACTGATCTCGC | 0.29
GCAGTTTTGGAGGAGGCT | 0.32
TACCAGAGACAGTCCCAT | 0.24
TCTCAGCCGCATCTCCTT | 0.13
GTTGGTCTCCGCAGAGCT | 0.37
AGTCACAGAGCTTGATCT | 0.31
GGCGTCGGCTTCTTCTTG | 0.3
CTCTTTGTTGCTTCCCAA | 0.38
AAGGATTTTCATACAATT | 0.7
GAAGGATCTCACAAGGCT | 0.27

Each sequence was assayed against PIK3CB. Details: ASO.

Sequence | remaining target (mRNA or protein) (fraction of control)
ACTGGATATAAATCCCAGTG | ≥ 1
AATTGTGAACTTGCTTCCAT | 0.74
ACTATGTCTGTCACCAATCC | 0.52
AGTAGCCAGCACAGGACAGT | ≥ 1
TGCTATCTGTGAATCCACCG | 0.99
ACCAGCCCTGACATGAACTT | 0.45
TATAAGAAATGGTAGCTTCC | ≥ 1
GGCATTATGAAACTGAAGCA | ≥ 1
TAAGGCAACATCCGAAGATC | 0.96
GGCCAAATCTGAAGCAGCGC | ≥ 1
AAGTTTTCAGGGATGGATGG | ≥ 1
TTCCCGAGGTACCTCCAACT | 0.7
TACATTTTCTTGATCTTGCA | ≥ 1
ATTCCCATGCCGTCGTAAAA | ≥ 1
CTTCCCATGAATAGTCAAAC | 0.53
ATTAGTGGATGATCACCAAA | 0.99
CTGGAAGAAAAGGTCTGACA | ≥ 1

The sequences below were run against PIK3CD. Details: ASO.

Sequence | remaining target (mRNA or protein) (fraction of control)
GGGCTGGGAGGAGCCACTAC | ≥ 1
CTGCGTTGTTACTTCCCAGA | ≥ 1 and 0.41
CCCCGGTCTTAAGCTGGTCC | 0.31 and 0.42
CCTCCTCTTGGGCCCAGGGC | ≥ 1 and 0.71
CAGCCGAGAGCCAGGTGCAG | ≥ 1 and 0.59
AGTCCACCCCAGGGGGCATC | ≥ 1 and 0.45
CCACCCCAGGGGGCATCCTG | ≥ 1 and 0.37
ACTACTGCCTGTTGTCTTTG | ≥ 1 and 0.44
ACCAATGTGCTTGGTCCCCA | ≥ 1 and 0.37
AGCTGCCAGAACTCAGTCTA | 0.53 and 0.48
GTCGGTTCTTTCCCGTTAGG | 0.52 and 0.35
CCAGGGCTGGGAGGAGCCAC | 0.91 and 0.69
ACTGCCTGTTGTCTTTGGAC | 0.74 and 0.44
ATGAAGGAGGCGTTTCCGTT | 0.81 and 0.32
GATGACAGTTGTCCTCTCTG | 0.84 and 0.46
GGCAGATTAAAGATGCTTTA | 0.9 and 0.48
CTGGGAGGAGCCACTACTGC | 0.99 and 0.6
GGACGGGCAGGAAGGGCTGC | ≥ 1 and 0.87
CGGCTGCTCCAGGGACCACA | 0.63 and 0.38
GCGCAGCTGGCAGGGCTGGG | 0.86 and ≥ 1

Sequence | remaining target (mRNA or protein) (fraction of control)
GGAGCCACTACTGCCTGTTG | 0.86 and 0.31
GGCAGTCCACCCCAGGGGGC | 0.76 and 0.56
CAGGGGGCATCCTGCGTTGT | 0.85 and ≥ 1
CCCCAGGGGGCATCCTGCGT | 0.81 and 0.96
GGAAGCTGAAGTCTAGCAGC | 0.84 and 0.56
GCATCCTGCGTTGTTACTTC | 0.89 and 0.35
GGGGCATCCTGCGTTGTTAC | ≥ 1
GCGGCACGTCCTTGGTGGAC | 0.93 and 0.54
GCCACTACTGCCTGTTGTCT | 0.59 and 0.3
AATGAGTGTCATCCCGCCCT | 0.4 and 0.14
AGACCCCTGTGGGCAGCAGG | 0.78 and 0.46
CCTCGGGAGGAGAACAGTCT | ≥ 1 and 0.45
AATTCCCCAGAAAGTGGCCA | 0.74 and 0.5
GGAGGAGCCACTACTGCCTG | 0.98 and 0.55
ACCCACTTGAAAAGTGGAGA | 0.99 and 0.8
AGTAGGCACCAGGTGACCGC | 0.77 and 0.67
CGGCCGCTCGTGCCGAATTC | 0.96 and ≥ 1
CGTTGCTCGTCCTCCAGCTC | 0.47 and 0.27
TGGAATAGTCCAAGAAAGAC | ≥ 1

Each sequence was assayed against SMAD1. Details: ASO.

Sequence | remaining target (mRNA or protein) (fraction of control)
ACATTCATAATGACAGCA | 0.59
TTGGTCACAGAGGTCAAG | 0.15
TGACTCATCCATCCTTCA | 0.19
CCAGTCAGCACCGGGTTG | 0.8

The sequences below were run against SMAD3. Details: ASO.

Sequence | remaining target (mRNA or protein) (fraction of control)
TGCAGGTCCAAGTTATTA | 0.81
CCCCTACCATACTTGATG | 0.38
CCAAGTTATTATGTGCTG | ≥ 1
GGAGGGCGTGCGGGCGGC | ≥ 1
AGAACTGGTGTCTCTACT | 0.51
TGGGTTGAGTAGAGTTCC | 0.53
ACATTCGGGTCAACTGGT | 0.48
TCTTCTTCCTTGACAACA | 0.92
GCCCTGGTTGACCGACTG | 0.83
GCGCTGGTTACAGTTGGG | ≥ 1
GGTAGGGATTCACGCAGA | 0.92
CCCCTCCGATGTAGTAGA | 0.54
GCGTGGCACCAACACAGG | ≥ 1
TGCATCGTGCGGGCTCTT | 0.43
TTAAGCCACCAGAGCAGA | ≥ 1
GAACTCCTGGTTGTTGAA | ≥ 1
CTCCCCAGCCTTTGACGA | 0.54
GCCTTCTCGCACCATTTC | 0.92
TGCCCGTTCTGCTCGCCC | 0.63
GTGCGGGCGGCGAGGAGC | 0.86

Sequence | remaining target (mRNA or protein) (fraction of control)
CTCTGGGTTTGCTCGTGT | 0.56
GGGTCGGTGAAGCCATCC | ≥ 1
GCGAGGCGTGGAATGTCT | 0.54
CCATTTCTCCTCCTGCCC | 0.62
TCTGGTGGTCACTGGTTT | 0.64
GAGGCACTCTGCGAAGAC | 0.49
AGACCAAATGCCATCCCA | 0.18
TGCTCGCCCTTCTTCCAG | 0.61
TTCTTCCAGCCCAGCAGG | ≥ 1
GGCTGTAGTCGTCCAGTG | 0.65
CGATGTAGTAGAGCCGCA | 0.42
GGGAAGTTAGTGTTTTCG | ≥ 1
CCTGTTGACATTGGAGAG | 0.72
TCTTGAGTTTCTTGACCA | ≥ 1
CTTCCGATGTGTCTCCGT | 0.39
ACAGGCGGCAGTAGATGA | ≥ 1
CCTCCCCATCCCAAGTCT | 0.59
CTCTCTGGTAGTGGTAGG | 0.8
GAACACGCACCTCCCAAT | 0.4
